# Experimental data: patent publication US20250059183A1, “PYRIDINE[4,3-D]PYRIMIDINE COMPOUND AS TLR7/8 AGONIST” (SHANGHAI VISONPHARMA CO., LTD., priority 2021, published 2025)
# pEC50: −log10 of the molar value.
# Legend:
# [1] = biological target: T1, human TLR8 (Homo sapiens, UniProt Q9NR97); test: HEK-Blue hTLR8 SEAP reporter gene agonist assay; format: cell-based; settings: HEK-Blue hTLR8 cells, 16 to 22 hours incubation
# T1 construct: host or cells: HEK-Blue hTLR8 (HEK293-derived reporter cells)
# T1 sequence (Q9NR97 27-1041): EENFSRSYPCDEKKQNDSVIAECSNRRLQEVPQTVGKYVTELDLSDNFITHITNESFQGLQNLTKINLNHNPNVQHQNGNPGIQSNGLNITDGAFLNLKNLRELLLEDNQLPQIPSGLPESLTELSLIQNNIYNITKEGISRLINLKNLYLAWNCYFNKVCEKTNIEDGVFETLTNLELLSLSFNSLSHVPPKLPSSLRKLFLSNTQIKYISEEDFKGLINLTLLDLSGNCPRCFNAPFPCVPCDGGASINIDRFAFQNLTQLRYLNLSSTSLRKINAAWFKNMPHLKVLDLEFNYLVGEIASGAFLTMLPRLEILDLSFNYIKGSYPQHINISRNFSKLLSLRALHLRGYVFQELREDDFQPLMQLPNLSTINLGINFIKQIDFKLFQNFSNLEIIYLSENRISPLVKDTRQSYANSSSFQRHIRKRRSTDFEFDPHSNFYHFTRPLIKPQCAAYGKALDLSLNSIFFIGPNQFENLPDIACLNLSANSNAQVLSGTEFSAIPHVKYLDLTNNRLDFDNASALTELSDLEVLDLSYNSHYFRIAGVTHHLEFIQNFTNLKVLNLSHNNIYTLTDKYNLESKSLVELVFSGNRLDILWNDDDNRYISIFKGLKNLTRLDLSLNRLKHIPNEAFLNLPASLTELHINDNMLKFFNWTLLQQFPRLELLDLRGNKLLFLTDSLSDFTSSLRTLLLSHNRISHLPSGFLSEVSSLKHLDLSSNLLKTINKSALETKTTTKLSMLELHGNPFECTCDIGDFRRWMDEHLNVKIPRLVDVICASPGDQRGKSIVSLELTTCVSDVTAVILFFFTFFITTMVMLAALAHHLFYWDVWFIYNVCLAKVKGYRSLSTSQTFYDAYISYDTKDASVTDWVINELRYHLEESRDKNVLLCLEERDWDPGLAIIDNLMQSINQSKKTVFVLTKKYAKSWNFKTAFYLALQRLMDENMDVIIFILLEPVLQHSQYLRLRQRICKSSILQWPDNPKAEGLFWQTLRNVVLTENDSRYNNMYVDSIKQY
# Experimental: (§1) HEK-Blue™ cells that stably express human TLR7 or TLR8 are used to evaluate the agonistic activity of the compounds on TLR7 or TLR8, which is determined by the induction of the expression of SEAP reporter gene under the control of minimum IFN-β promoter fusion to 5×NF-κB and AP-1 binding sites. The assay is conducted as below:
# (§2) HEK-Blue™ hTLR7 (Invivogen, 80,000 cells per well) or HEK-Blue™ hTLR8 (Invivogen, 60,000 cells per well) were added to the 96-well cell culture plate, followed by adding of the test compound. The final concentration of the test compound in the medium ranged from […], and was incubated for 16 to 22 hours. According to the manufacturer's instructions, the HEK-Blue assay reagent Quanti-blue (Invivogen) was used to measure SEAP levels in cell media. Optical density at 650 nm (OD650) was measured by Neo2 multifunction plate reader (Bio-tek). The half effective concentration (EC50) was calculated using GraphPad Prism.
# [2] = biological target: T2, human TLR7 (Homo sapiens, UniProt Q9NYK1); test: HEK-Blue hTLR7 SEAP reporter gene agonist assay; format: cell-based; settings: HEK-Blue hTLR7 cells, 16 to 22 hours incubation
# T2 construct: host or cells: HEK-Blue hTLR7 (HEK293-derived reporter cells)
# T2 sequence (Q9NYK1 27-1049): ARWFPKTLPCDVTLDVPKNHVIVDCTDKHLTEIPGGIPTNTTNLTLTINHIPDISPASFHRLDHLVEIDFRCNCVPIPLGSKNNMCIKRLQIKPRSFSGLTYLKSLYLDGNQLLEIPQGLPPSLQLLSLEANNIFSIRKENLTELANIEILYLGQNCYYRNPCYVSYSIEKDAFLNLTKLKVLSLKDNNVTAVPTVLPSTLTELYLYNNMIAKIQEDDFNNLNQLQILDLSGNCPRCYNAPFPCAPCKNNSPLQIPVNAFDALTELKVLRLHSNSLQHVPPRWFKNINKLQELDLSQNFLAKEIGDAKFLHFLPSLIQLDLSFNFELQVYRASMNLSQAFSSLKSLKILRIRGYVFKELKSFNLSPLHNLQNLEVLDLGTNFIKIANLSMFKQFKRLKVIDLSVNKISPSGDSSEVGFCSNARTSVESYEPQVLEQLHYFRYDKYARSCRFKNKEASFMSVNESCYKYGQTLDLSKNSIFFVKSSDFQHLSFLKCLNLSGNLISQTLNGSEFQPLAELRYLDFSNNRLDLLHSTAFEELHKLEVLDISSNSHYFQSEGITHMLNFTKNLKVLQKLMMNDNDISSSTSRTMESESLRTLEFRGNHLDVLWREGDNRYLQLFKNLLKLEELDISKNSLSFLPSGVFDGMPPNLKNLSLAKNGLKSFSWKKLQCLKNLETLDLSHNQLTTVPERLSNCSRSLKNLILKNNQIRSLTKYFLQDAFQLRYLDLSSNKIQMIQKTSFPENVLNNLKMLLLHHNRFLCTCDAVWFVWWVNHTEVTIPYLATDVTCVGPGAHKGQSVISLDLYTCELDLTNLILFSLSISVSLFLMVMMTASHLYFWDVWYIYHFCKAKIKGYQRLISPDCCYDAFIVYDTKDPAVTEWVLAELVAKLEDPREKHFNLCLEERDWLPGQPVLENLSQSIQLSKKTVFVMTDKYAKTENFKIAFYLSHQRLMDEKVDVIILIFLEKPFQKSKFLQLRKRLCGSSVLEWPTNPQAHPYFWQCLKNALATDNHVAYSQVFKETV
# Experimental: as §1, §2
pEC50 [1],pEC50 [2],SMILES
7.24,7.09,"CCCCNc1nc(N)nc2ccn(Cc3ccc(CN4CCCC4)cc3)c(=O)c12 [Compound I-1, 2-amino-4-(butylamino)-6-(4-(pyrrolidin-1-ylmethyl)benzyl)pyrido[4,3-d]pyrimidin-5(6H)-one]"
6.97,7.19,"CCCCNc1nc(N)nc2ccn(Cc3ccc(CN4CCCC4)cc3OC)c(=O)c12 [Compound I-2, 2-amino-4-(butylamino)-6-(2-methoxy-4-(pyrrolidin-1-ylmethyl)benzyl)pyrido[4,3-d]pyrimidin-5(6H)-one]"
7.11,7.07,"CCCCNc1nc(N)nc2ccn(Cc3ccc(C(=O)N4CCNCC4)cc3)c(=O)c12 [Compound I-14, 2-amino-4-(butylamino)-6-(4-(piperazine-1-carbonyl)benzyl)pyrido[4,3-d]pyrimidin-5(6H)-one]"
7.24,7.06,"CCCCNc1nc(N)nc2ccn(Cc3ccc(CN(C)C)cc3)c(=O)c12 [Compound I-35, 2-amino-4-(butylamino)-6-(4-((dimethylamino)methyl)benzyl)pyrido[4,3-d]pyrimidin-5(6H)-one]"
7.06,7.01,"CCCCNc1nc(N)nc2ccn(Cc3ccc(CN4CCCC4)cc3F)c(=O)c12 [Compound I-51, 2-amino-4-(butylamino)-6-(2-fluoro-4-(pyrrolidin-1-ylmethyl)benzyl)pyrido[4,3-d]pyrimidin-5(6H)-one]"
7.25,7.08,"CCCCNc1nc(N)nc2ccn(Cc3ccc(CN4CC5(COC5)C4)cc3)c(=O)c12 [Compound I-52, 6-(4-((2-oxa-6-azaspiro[3.3]heptan-6-yl)methyl)benzyl)-2-amino-4-(butylamino)pyri do[4,3-d]pyrimidin-5(6H)-one]"
7.04,7.21,"CCCCNc1nc(N)nc2ccn(Cc3ccc(C(=O)N4CCN(C(C)C)CC4)cc3)c(=O)c12 [Compound I-53, 2-amino-4-(butylamino)-6-(4-(4-isopropylpiperazine-1-carbonyl)benzyl)pyrido[4,3-d]pyrimidin-5(6H)-one]"
7.19,6.69,"CCCCNc1nc(N)nc2ccn(Cc3ccc(C(=O)N4C5CNCC4C5)cc3)c(=O)c12 [Compound I-65, 6-(4-(3,6-diazabicyclo[3.1.1]heptane-6-carbonyl)benzyl)-2-amino-4-(butylamino)pyri do[4,3-d]pyrimidin-5(6H)-one]"
7.09,7.19,"CCCCNc1nc(N)nc2ccn(Cc3ccc(C(=O)N4CCNCC4)cc3OC)c(=O)c12 [Compound I-72, 2-amino-4-(butylamino)-6-(2-methoxy-4-(piperazine-1-carbonyl)benzyl)pyrido[4,3-d]pyrimidin-5(6H1)-one]"
6.98,7.06,"CCCCNc1nc(N)nc2ccn(Cc3ccc(C(=O)N4CCN(C)CC4)c(OC)c3)c(=O)c12 [Compound I-79, 2-amino-4-(butylamino)-6-(3-methoxy-4-(4-methylpiperazine-1-carbonyl)benzyl)pyrido[4,3-d]pyrimidin-5(6H)-one]"
7.33,7.17,"CCCCNc1nc(N)nc2ccn(Cc3ccc(CCN(C)C)cc3)c(=O)c12 [Compound I-90, 2-amino-4-(butylamino)-6-(4-(2-(dimethylamino)ethyl)benzyl)pyrido[4,3-d]pyrimidin-5(6H)-one]"
7.34,7.19,"CCCC(CCO)Nc1nc(N)nc2ccn(Cc3ccc(CN4CCCC4)cc3)c(=O)c12 (stereo not drawn) [Compound I-95, 2-amino-4-((1-hydroxyhexan-3-yl)amino)-6-(4-(pyrrolidin-1-ylmethyl)benzyl)pyrido[4,3-d]pyrimidin-5(6H)-one]"
7.51,7.30,"CCCC(CCOC(=O)C(F)(F)F)Nc1nc(N)nc2ccn(Cc3ccc(CN4CCCC4)cc3)c(=O)c12 (stereo not drawn) [Compound I-96, 3-((2-amino-5-oxo-6-(4-(pyrrolidin-1-ylmethyl)benzyl)-5,6-dihydropyrido[4,3-d]pyrimidin-4-yl)amino)hexyl 2,2,2-trifluoroacetate]"
7.07,7.00,"CCCCNc1nc(N)nc2ccn(Cc3ccc(CN(CCC)CCO)cc3)c(=O)c12 [Compound I-98, 2-amino-4-(butylamino)-6-(4-(((2-hydroxyethyl)(propyl)amino)methyl)benzyl)pyrido[4,3-d]pyrimidin-5(6H)-one]"
7.33,7.19,"CCC[C@@H](C)Nc1nc(N)nc2ccn(Cc3ccc(CN4CCCC4)cc3)c(=O)c12 [Compound I-103, (R)-2-amino-4-(pentan-2-ylamino)-6-(4-(pyrrolidin-1-ylmethyl)benzyl)pyrido[4,3-d]pyrimidin-5(6H)-one]"
7.31,7.26,"CCC[C@@H](C)Nc1nc(N)nc2ccn(Cc3ccc(C(=O)N4CCNCC4)cc3)c(=O)c12 [Compound I-117, (R)-2-amino-4-(pentan-2-ylamino)-6-(4-(piperazine-1-carbonyl)benzyl)pyrido[4,3-d]pyrimidin-5(6H)-one]"
7.28,7.40,"CCC[C@@H](CCO)Nc1nc(N)nc2ccn(Cc3ccc(CN4CCCC4)cc3)c(=O)c12 [Compound I-118, (S)-2-amino-4-((1-hydroxyhexan-3-yl)amino)-6-(4-(pyrrolidin-1-ylmethyl)benzyl)pyrido[4,3-d]pyrimidin-5(6H)-one]"
7.28,7.34,"CCCCNc1nc(N)nc2ccn(Cc3ccc(C(=O)N4CCN(CCO)CC4)cc3OC)c(=O)c12 [Compound I-120, 2-amino-4-(butylamino)-6-(4-(4-(2-hydroxyethyl)piperazine-1-carbonyl)-2-methoxybenzyl)pyrido[4,3-d]pyrimidin-5(6H)-one]"
7.47,7.64,"CCC[C@@H](C)Nc1nc(N)nc2ccn(Cc3ccc(C(=O)N4CCN(CCO)CC4)cc3OC)c(=O)c12 [Compound I-123, (R)-2-amino-6-(4-(4-(2-hydroxyethyl)piperazine-1-carbonyl)-2-methoxybenzyl)-4-(pentan-2-ylamino)pyrido[4,3-d]pyrimidin-5(6H)-one]"
,7.19,"CCC[C@@H](CC)Nc1nc(N)nc2ccn(Cc3ccc(C(=O)N4CCNCC4)cc3)c(=O)c12 [Compound I-137, (R)-2-amino-4-(hexan-3-ylamino)-6-(4-(piperazine-1-carbonyl)benzyl)pyrido[4,3-d]pyrimidin-5(6H)-one]"
